Series [1] has as its target Thymidylate synthase (Homo sapiens, UniProt P04818). The series is described as follows: Inhibition of human recombinant thymidylate synthase.
Series [2] has as its target T1, Thymidylate synthase (Lactobacillus casei, UniProt P00469).
T1 sequence (P00469 whole entry): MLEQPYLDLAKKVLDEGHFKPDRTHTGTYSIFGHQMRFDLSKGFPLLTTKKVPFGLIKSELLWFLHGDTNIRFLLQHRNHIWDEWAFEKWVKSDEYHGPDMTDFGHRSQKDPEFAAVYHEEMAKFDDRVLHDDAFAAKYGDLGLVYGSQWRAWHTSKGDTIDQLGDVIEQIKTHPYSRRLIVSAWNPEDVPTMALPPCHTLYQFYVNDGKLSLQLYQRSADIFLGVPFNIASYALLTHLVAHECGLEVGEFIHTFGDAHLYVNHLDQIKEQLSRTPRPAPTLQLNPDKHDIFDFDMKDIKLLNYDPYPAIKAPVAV
The series is described as follows: Inhibition of Lactobacillus casei thymidylate synthase. Details: species or system Lacticaseibacillus casei.

In series [3] the test system is CCRF-CEM. The series is described as follows: Growth inhibition in human CCRF-CEM cells assessed as cell growth relative to control. Details: scale not given: the % may be the effect or the level left. It counts as functional.
For series [4], the system named is CCRF-CEM. The series is described as follows: Cell growth in human CCRF-CEM cells at 30 nM in presence of 10 uM hypoxanthine and 10 uM deoxycytidine. It counts as functional.
The test system of series [5] is CCRF-CEM. The series is described as follows: Cell growth in human CCRF-CEM cells in presence of 10 uM hypoxanthine and 10 uM deoxycytidine relative to control. Format: functional.
The test system of series [6] is CCRF-CEM. The series is described as follows: Cell growth in human CCRF-CEM cells in presence of 5 uM thymidine and 10 uM deoxycytidine relative to control. Format: functional.
Series [7] relates to CCRF-CEM. The experiment in a line: Cell growth in human CCRF-CEM cells at 30 nM in presence of 5 uM thymidine and 10 uM deoxycytidine relative to control. It counts as functional.
Series [8] relates to CCRF-CEM. The series is described as follows: Cell growth in human CCRF-CEM cells in presence of thymidine and hypoxanthine and 10 uM deoxycytidine relative to control. Format: functional.
Series [9] has as its system CCRF-CEM. The series is described as follows: Cell growth in human CCRF-CEM cells at 30 nM in presence of thymidine, hypoxanthine and 10 uM deoxycytidine. It counts as functional.
Series [10] has as its target T2, Folylpolyglutamate synthase, mitochondrial (Homo sapiens) (UniProt Q05932).
T2 sequence (whole entry): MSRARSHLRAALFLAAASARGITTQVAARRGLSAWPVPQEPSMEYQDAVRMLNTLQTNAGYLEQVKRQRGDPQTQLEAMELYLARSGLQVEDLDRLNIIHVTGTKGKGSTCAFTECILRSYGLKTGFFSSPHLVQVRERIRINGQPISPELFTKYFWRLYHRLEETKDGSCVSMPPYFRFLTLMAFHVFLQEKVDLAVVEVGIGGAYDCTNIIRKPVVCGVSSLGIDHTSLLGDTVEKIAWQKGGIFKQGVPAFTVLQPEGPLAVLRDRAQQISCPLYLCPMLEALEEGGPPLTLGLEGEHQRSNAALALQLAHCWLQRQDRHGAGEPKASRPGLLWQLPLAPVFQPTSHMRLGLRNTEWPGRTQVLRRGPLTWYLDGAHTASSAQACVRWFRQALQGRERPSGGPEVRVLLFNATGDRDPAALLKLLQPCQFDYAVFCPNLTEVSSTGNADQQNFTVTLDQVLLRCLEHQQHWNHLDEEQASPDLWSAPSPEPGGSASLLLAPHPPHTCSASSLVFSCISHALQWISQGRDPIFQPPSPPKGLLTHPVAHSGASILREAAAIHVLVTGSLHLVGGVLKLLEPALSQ
The series is described as follows: Ratio of Vmax to Km of human recombinant cytosolic FPGS.

A short description of series [11]: Cytotoxicity against human MCF7 cells. Format: cell-based.
Series [12] in a line: Cytotoxicity against human HCT116 cells. The settings on record: HCT-116 cells. It counts as cell-based.
The nature of series [13]: Cytotoxicity against human HL60 cells. It counts as cell-based. The conditions noted are these: HL-60 cells.
In series [14] the target is T3, Dihydrofolate reductase (Escherichia coli, UniProt P0ABQ4).
T3 sequence (P0ABQ4 whole entry): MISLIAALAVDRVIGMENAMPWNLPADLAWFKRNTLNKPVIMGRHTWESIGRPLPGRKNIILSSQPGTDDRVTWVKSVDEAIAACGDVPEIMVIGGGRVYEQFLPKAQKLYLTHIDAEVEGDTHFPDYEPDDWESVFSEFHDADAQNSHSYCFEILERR

A short description of series [15]: Cytotoxicity against human HOP92 cells. It counts as cell-based. The settings on record: HOP-92 cells.
Series [16] can be described thus: Cytotoxicity against human SW620 cells. The conditions noted are these: SW-620 cells. Format: cell-based.
Series [17] can be described thus: Cytotoxicity against human SK-MEL-28 cells. Format: cell-based.
Series [18] is described as follows: Cytotoxicity against human SR cells. It counts as cell-based.
A short description of series [19]: Cytotoxicity against human NCI-H460 cells. It counts as cell-based.
Series [20] deals with Dihydrofolate reductase (Lactobacillus casei, UniProt P00381).
Chain of Dihydrofolate reductase (Lactobacillus casei, UniProt P00381) (P00381 whole entry): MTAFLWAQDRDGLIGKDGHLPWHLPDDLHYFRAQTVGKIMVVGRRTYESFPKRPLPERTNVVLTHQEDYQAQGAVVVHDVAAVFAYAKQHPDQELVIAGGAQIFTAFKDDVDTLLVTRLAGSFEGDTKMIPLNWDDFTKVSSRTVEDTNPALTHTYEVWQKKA
A short description of series [21]: Cytotoxicity against human A549 cells. Format: cell-based.
Series [22] can be described thus: Cytotoxicity against human CCRF-CEM cells. Format: cell-based.
Series [23] addresses T4, Dihydrofolate reductase (Homo sapiens, UniProt P00374).
T4 sequence (P00374 whole entry): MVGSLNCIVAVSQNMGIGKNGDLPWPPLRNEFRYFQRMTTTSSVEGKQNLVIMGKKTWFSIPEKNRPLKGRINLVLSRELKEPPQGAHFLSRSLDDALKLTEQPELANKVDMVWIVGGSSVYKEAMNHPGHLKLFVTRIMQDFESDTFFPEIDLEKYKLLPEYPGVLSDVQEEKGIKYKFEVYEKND

Series [24] can be described thus: Cytotoxicity against MDAN cells. It counts as cell-based, MDA-N. The conditions noted are these: human.
The next series concerns SF-268. The series is described as follows: Cytotoxicity against SF268 cells. Format: functional. The settings on record: Homo sapiens.
Series [25] is described as follows: Cytotoxicity against human PC3 cells. Format: cell-based. The conditions noted are these: PC-3 cells.
Series [26] has as its system CCRF-CEM. The series is described as follows: Cell growth in human CCRF-CEM cells relative to control. It counts as functional.
Series [27] in a line: Cytotoxicity against human MDA-MB-435 cells. It counts as cell-based.
A short description of series [28]: Cytotoxicity against human K562 cells. Format: cell-based.
The subject of series [29] is CCRF-CEM. The experiment in a line: Growth inhibition of human CCRF-CEM cells at 1500 nM. It counts as functional.
Series [30] is described as follows: Cytotoxicity against human 786-0 cells. It counts as cell-based.
Series [31] has as its target Thymidylate synthase (Escherichia coli, UniProt C3SWJ7). The series is described as follows: Inhibition of Escherichia coli thymidylate synthase.
Substrate in series [32]: Nc1nc(N)c2c(CCCc3ccc(C(=O)N[C@@H](CCC(=O)O)C(=O)O)cc3)coc2n1
The experiment in a line: (§1) Activity of human recombinant cytosolic FPGS relative to aminopterin.

Substrate in series [33]: Nc1nc(N)c2c(CCc3ccc(C(=O)N[C@@H](CCC(=O)O)C(=O)O)cc3)coc2n1
The description is as §1.

Substrate in series [34]: Nc1nc(N)c2c(CCCc3ccc(C(=O)N[C@@H](CCC(=O)O)C(=O)O)cc3)coc2n1
The experiment in a line: Activity of human recombinant cytosolic FPGS.

Chain of Thymidylate synthase (Homo sapiens, UniProt P04818) (P04818 whole entry): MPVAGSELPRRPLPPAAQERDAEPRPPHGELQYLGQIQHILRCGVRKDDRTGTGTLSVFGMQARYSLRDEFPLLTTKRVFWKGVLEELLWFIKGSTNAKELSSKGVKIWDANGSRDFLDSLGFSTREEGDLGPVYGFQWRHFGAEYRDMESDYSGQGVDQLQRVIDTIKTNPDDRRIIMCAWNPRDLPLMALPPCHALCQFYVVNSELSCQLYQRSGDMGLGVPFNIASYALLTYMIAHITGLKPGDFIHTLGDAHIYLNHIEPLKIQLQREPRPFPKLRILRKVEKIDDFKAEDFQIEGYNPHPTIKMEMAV
Chain of Thymidylate synthase (Escherichia coli, UniProt C3SWJ7) (C3SWJ7 whole entry): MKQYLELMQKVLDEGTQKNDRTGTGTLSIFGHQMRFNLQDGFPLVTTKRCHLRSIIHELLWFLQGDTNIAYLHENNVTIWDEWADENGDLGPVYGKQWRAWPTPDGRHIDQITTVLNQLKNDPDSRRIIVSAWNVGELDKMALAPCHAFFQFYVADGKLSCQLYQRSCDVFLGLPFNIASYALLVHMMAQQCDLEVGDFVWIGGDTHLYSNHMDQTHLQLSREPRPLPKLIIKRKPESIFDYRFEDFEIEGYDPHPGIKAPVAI

As for `Nc1nc2[nH]cc(CCc3ccc(C(=O)N[C@@H](CCC(=O)O)C(=O)O)cc3)c2c(=O)[nH]1` [PEMETREXED], the IC50 (usually the concentration that inhibits the measured activity by half) on Thymidylate synthase [1] was determined as 19000 nM; on Thymidylate synthase [2], 38000 nM.
In the case of `Nc1ccn([C@H]2C[C@H](O)[C@@H](CO)O2)c(=O)n1` [DOXECITINE], the Activity with CCRF-CEM [3] is recorded as 97%.
In the case of `CN(Cc1cnc2nc(N)nc(N)c2n1)c1ccc(C(=O)N[C@@H](CCC(=O)O)C(=O)O)cc1` [METHOTREXATE], the Activity amounted to 15.5% with CCRF-CEM [4]; 13.5% in the series on CCRF-CEM [5]; 12.5% in the series with CCRF-CEM [6]; 16% in the series on CCRF-CEM [7]; 73.5% in the series with CCRF-CEM [8]; 74.5% with CCRF-CEM [9].
`Nc1nc(N)c2c(CCc3ccc(C(=O)N[C@@H](CCC(=O)O)C(=O)O)cc3)coc2n1`: the Ratio in [10] came to 0.07.
On the same count and under the same terms, as for `Nc1nc(N)c2nc(CNc3ccc(C(=O)N[C@@H](CCC(=O)O)C(=O)O)cc3)cnc2n1`, the figure is 0.22.
Turning to `Nc1nc(N)c2c(CCCc3ccc(C(=O)N[C@@H](CCC(=O)O)C(=O)O)cc3)coc2n1`, the 50% growth inhibitory concentration (GI50) – broadly, the concentration at which growth is held to half of that of the control – in [11] was determined as 174 nM; in series [12], 10 nM; in series [13], 10 nM; in [15], 95900 nM; in [16], 10 nM; in series [17], 100000 nM. Further, the concentration for 50% growth inhibition (GI50) in series [18] was 10 nM; in [19] it was 10 nM; in series [21] it was 16.6 nM; in series [22], 42.9 nM; in series [24], 22.3 nM; in the series on SF-268 it was 648 nM. Besides, the GI50 in [25] was 12.5 nM; in series [27], 21.4 nM; in series [28], 10 nM; in [30], 123 nM. Besides, the half-inhibitory concentration (IC50) against Dihydrofolate reductase [14] was 7000 nM; on Dihydrofolate reductase [20], 11000 nM; against Dihydrofolate reductase [23], 9000 nM; at Thymidylate synthase [1], more than 18000 nM; at Thymidylate synthase [2], more than 100000 nM; against Thymidylate synthase [31], more than 180000 nM. Besides, the Activity in the series on CCRF-CEM [5] was determined as 20%; in the series on CCRF-CEM [6], 25.5%; with CCRF-CEM [26], 21%; in the series with CCRF-CEM [8], 73.5%. Further, in series [10], the Ratio amounted to 1.4. Moreover, testing at 1.5 µM with CCRF-CEM [29] gave an inhibition of 80%.

B1: Folylpolyglutamate synthase, mitochondrial (Homo sapiens), Q05932 (protein)
chain: MSRARSHLRAALFLAAASARGITTQVAARRGLSAWPVPQEPSMEYQDAVRMLNTLQTNAGYLEQVKRQRGDPQTQLEAMELYLARSGLQVEDLDRLNIIHVTGTKGKGSTCAFTECILRSYGLKTGFFSSPHLVQVRERIRINGQPISPELFTKYFWRLYHRLEETKDGSCVSMPPYFRFLTLMAFHVFLQEKVDLAVVEVGIGGAYDCTNIIRKPVVCGVSSLGIDHTSLLGDTVEKIAWQKGGIFKQGVPAFTVLQPEGPLAVLRDRAQQISCPLYLCPMLEALEEGGPPLTLGLEGEHQRSNAALALQLAHCWLQRQDRHGAGEPKASRPGLLWQLPLAPVFQPTSHMRLGLRNTEWPGRTQVLRRGPLTWYLDGAHTASSAQACVRWFRQALQGRERPSGGPEVRVLLFNATGDRDPAALLKLLQPCQFDYAVFCPNLTEVSSTGNADQQNFTVTLDQVLLRCLEHQQHWNHLDEEQASPDLWSAPSPEPGGSASLLLAPHPPHTCSASSLVFSCISHALQWISQGRDPIFQPPSPPKGLLTHPVAHSGASILREAAAIHVLVTGSLHLVGGVLKLLEPALSQ
Turning to B1, the Vmax in [32] came to 0.42; in series [33], 0.65. The Km (usually the concentration of substrate that gives half-maximal velocity) in [34] was found to be 0.3 µM.

For the origin of these results see ChEMBL document CHEMBL1149313, “Synthesis of classical, three-carbon-bridged 5-substituted furo[2,3-d]pyrimidine and 6-substituted pyrrolo[2,3-d]pyrimidine analogues as antifolates” (J Med Chem, 2004).
